Data published in patent US20160317503A1, “ZOLMITRIPTAN POWDERS FOR PULMONARY DELIVERY” (Civitas Therapeutics, Inc., priority 2015, published 2016).

Experiments:
[1] = DSC / modulated DSC thermal events (Tg, Low T1, Low T2, recrystallization, melt); format: physicochemical
Experimental: For comparative purposes, a 100% spray-dried zolmitriptan powder was prepared and analyzed via XRPD and DSC to allow for a comparison to the formulations from Example 2 that were placed on stability and to facilitate an interpretation of the resultant thermal data. Initially, a lot of amorphous 100% zolmitriptan was produced via a Buchi 290 Spray-Drying System (spray drying parameters: solids concentration=2 g/L, inlet temperature=90° C., outlet temperature=45° C., drying gas flowrate=20 kg/hr, atomization gas flowrate=10 g/min, aqueous flowrate=4 ml/Min, organic phase flowrate=6 ml/min, spray dryer pressure=−50 mbar) and analyzed via modulated DSC (TA Instruments DSC Q2000 Tzero System, MDSC Parameters: hermetically sealed double lid pan configuration, equilibrate at 0° C. for 5 minutes, ramp up to maximum of 160° C. at 2.0° C./min, modulate+/−1.00° C. every 60 seconds) to determine its glass transition temperature.

[2] = s.c.; cited from earlier work

Question: Which results are given for `CN(C)CCc1c[nH]c2ccc(C[C@H]3COC(=O)N3)cc12` [Raw material, Zolmitriptan]?
Answer: Tm (° C.) ([1]; 100% zolmitriptan study, t = 0): 136.0 °C; ΔH ([1]; 100% zolmitriptan study, t = 0): 135.3 J/g; Tm (° C.) ([1]; 100% zolmitriptan study, t = 0, listed as Zolmitriptan raw material): approximately 136 °C

Question: For `CN(C)CCc1c[nH]c2ccc(C[C@H]3COC(=O)N3)cc12` [Zolmitriptan], which reported half-lives [2] is on record?
Answer: ~2 h

Question: Which “glass transition temperature (Tg)” value ([1]; modulated DSC, amorphous 100% zolmitriptan, Buchi 290) does the source give for `CN(C)CCc1c[nH]c2ccc(C[C@H]3COC(=O)N3)cc12` [pure amorphous zolmitriptan, Zolmitriptan] here?
Answer: approximately 33 °C

Question: For `CNS(=O)(=O)Cc1ccc2[nH]cc(CCN(C)C)c2c1` [sumatriptan], which reported half-lives [2] is on record?
Answer: ~2 h
